How the values were obtained:
sodium current = assay: Sodium current with TRPA agonist mustard oil and QX-314 (Example 3); assay type: cell-based; details: MO alone, 50 μM
Experimental: MO alone reduces sodium current by 20-30% and reaches a plateau after approximately 3 minutes.

[1] = system: voltage-dependent sodium channels; assay: Whole-cell voltage clamp of sodium current in small capsaicin-sensitive DRG neurons; assay type: cell-based, rat; details: n=25
Experimental: We recorded current through voltage-dependent sodium channels using whole-cell voltage clamp recordings from adult rat DRG neurons. To select for nociceptors, we recorded from small (24±5 μm; n=25) neurons and tested the neurons for the expression of TRPV1 receptors by a short (1-sec) application of 1 μM capsaicin. In 25/25 of small neurons tested, capsaicin produced a prolonged (10±3 sec) inward current (FIG. 1A, upper panel), consistent with the neurons being nociceptors. Sodium currents were elicited by depolarizing steps from a holding potential of −70 mV.
(§1) Dorsal root ganglia from 6-8 week old Sprague-Dawley rats were removed and placed into […] containing 1% penicillin—streptomycin (Sigma), then treated for 90 minutes with 5 mg/ml collagenase, 1 mg/ml Dispase II (Roche, Indianapolis, Ind.) and for 7 minutes with 0.25% trypsin, followed by addition of 2.5% trypsin inhibitor. Cells were triturated in the presence of […] (50 U), centrifuged through 15% BSA (Sigma), resuspended in 1 ml Neurobasal medium (Sigma), 10 μM AraC, NGF (50 ng/ml) and GDNF (2 ng/ml) and plated onto poly-lysine (500 μg/ml) and laminin (5 mg/ml) coated 35 mm tissue culture dishes (Becton Dickinson) at 8000-9000 per well. Cultures were incubated at 37° C., 5% carbon dioxide. Recordings were made within 48 hours after plating. […]

[2] = Sciatic nerve injection, mechanical threshold (von Frey filaments); assay type: in vivo, rat; details: QX-314 0.2%, 100 μL, capsaicin 0.5 μg/μL, 100 μL (for 30 min), or QX-314 then capsaicin, stiffest hair 57 g
Experimental: (§2) Motor effects were scored according to a scale of 0 (no effect; normal gait and limb placement), 1 (limb movement but with abnormal limb placement and movement) or 2 (complete loss of limb movement). […] For co-application of QX-314 and capsaicin into the para-sciatic nerve region, we injected QX-314 first, followed 10 minutes later by capsaicin, with the idea that QX-314 would be present extracellularly and ready to enter TRPV1 channels as soon as they were activated.
(§3) For sciatic nerve injections, animals were first habituated to handling for 10 days. Lidocaine (0.2% or 2%, 100 μL); QX-314 (0.2%, 100 μL) alone; capsaicin (50 μg in 100 μL) alone, or QX-314 followed by capsaicin (10 minutes interval) were injected into the area of sciatic nerve below the hip joint. Mechanical and thermal thresholds were determined using von Frey filaments and radiant heat. […] Walking, climbing, walking on the rod and placing reflex were examined. […] All experiments were done with the experimenter blinded.

[3] = Intraplantar injection, mechanical threshold for paw withdrawal (von Frey hairs); details: QX-314 10 μL of 2%, capsaicin 10 μg/10 μL (15 and 30 minutes), or together (15 minutes)
Experimental: (§4) We next examined if the combination of capsaicin and QX-314 can reduce pain behavior in vivo.
(§5) For intraplantar injections, rats were first habituated to handling and tests performed with the experimenter blind to the treatment. Intraplantar injections of vehicle (20% ethanol, 5% Tween 20 in saline, 10 μL) capsaicin (1 μg/μL), QX-314 (2%) or mixture of capsaicin and QX-314 into the left hindpaw were made and mechanical and thermal sensitivities determined using von Frey hairs and radiant heat respectively.

[4] = system: voltage-dependent sodium channels; assay: Whole-cell voltage clamp of sodium current in large capsaicin-insensitive DRG neurons; assay type: cell-based, rat; details: 10-minute application, n=10
From the text: To test whether the ability of co-applied capsaicin and QX-314 to inhibit sodium current is selective for cells that express TRPV1 receptors, we also recorded from large DRG neurons (soma diameter >40 μm) (FIG. 1A, right). […] As for small diameter neurons, QX-314 applied alone had little or no effect on sodium current (current increased by 8±4% after a 10-minute application, n=10). Unlike small diameter neurons, capsaicin had no effect on sodium current in large diameter neurons (average increase by 3±2% after a 10-minute application, n=10).
as §1

sodium channel = assay: Voltage clamp of sodium channel current in small dorsal root ganglion neurons with eugenol (Example 2); assay type: cell-based
Experimental: Co-application of eugenol and QX-314 produces progressive block that can be complete after 7 minutes. Two examples are depicted, which are representative of 10 experiments with similar results.
We have also shown that eugenol (C10H12O2), an allyl chain-substituted guaiacol, 2-methoxy-4-(2-propenyl)phenol (active ingredient in oil of clove, and a non-pungent agonist of TRPV1 receptors) promotes entry of QX-314 into dorsal root ganglion neurons by activating TRPV1 channels. FIG. 5 depicts voltage clamp recordings of sodium channel current in small dorsal root ganglion neurons. […] Co-application of eugenol and QX-314 produces progressive block that can be complete after 7 minutes. Two examples are depicted, which are representative of 10 experiments with similar results. […] Thus, these experiments indicate that eugenol promotes entry of QX-314 into dorsal root ganglion neurons by activating TRPV1 channels.

[5] = Sciatic nerve injection, motor function score and placing reflex
Experimental: as §2, §3

[6] = Intraplantar injection, thermal (radiant heat) response latency; assay type: in vivo, rat; details: QX-314 at 30 min, capsaicin at 15 and 30 min, together at 2 hours, heat applied for 25 seconds
Experimental: Similar effects were seen examining sensitivity to a standardized noxious radiant heat stimulus. […] This effect remained for 4 hours after the injection (FIG. 3B).

[7] = system: small diameter DRG neurons; assay: Current clamp, action potential generation in small DRG neurons; assay type: cell-based, rat; details: QX-314 5 mM, capsaicin 1 μM, alone or co-applied
Experimental: We also examined the effect of co-applied QX-314 and capsaicin in current clamp using physiological internal and external solutions.
Current clamp recordings were made using the fast current clamp mode of the Axopatch 200A amplifier Pipette solution was 135 mM K gluconate; 2 mM MgCl2; 6 mM KCl; 10 mM HEPES; 5 mM Mg ATP; 0.5 mM Li2GTP; (pH=7.4 with KOH). External solution was 145 mM NaCl; 5 mM KCl; 1 mM MgCl2; 2 mM CaCl210 mM HEPES; 10 mM glucose; (pH adjusted to 7.4 with NaOH). Membrane potential was corrected for a liquid junction potential of −15 mV.
Command protocols were generated and data digitized using a Digidata 1200 A/D interface with pCLAMP 8.2 software (Axon Instruments, Union City, Calif.). Voltage-clamp current records were low pass filtered at 2 kHz and current clamp recordings at 10 kHz (−3 dB, 4 pole Bessel filter).
QX-314 (5 mM), capsaicin (1 μM or 500 nM), or their combination was applied using custom-designed multibarrel fast drug delivery system placed about 200-250 μm from the neuron. Solution exchange was complete in less than a second.

[8] = Sciatic nerve injection, thermal (radiant heat) response latency; assay type: in vivo, rat; details: QX-314 0.2%, 100 μL, capsaicin 0.5 μg/μL, 100 μL (for 30 min)
Experimental: as §2, §3

TRPV1 receptors [9] = assay: Capsaicin-evoked inward current in large DRG neurons; assay type: cell-based, rat; details: soma diameter >40 μm; 10 of 10
Experimental: Dorsal root ganglia from 6-8 week old Sprague-Dawley rats were removed and placed into Dulbecco's Minimum Essential Medium containing 1% penicillin—streptomycin (Sigma), then treated for 90 minutes with 5 mg/ml collagenase, 1 mg/ml Dispase II (Roche, Indianapolis, Ind.) and for 7 minutes with 0.25% trypsin, followed by addition of 2.5% trypsin inhibitor. Cells were triturated in the presence of DNAase I inhibitor (50 U), centrifuged through 15% BSA (Sigma), resuspended in 1 ml Neurobasal medium (Sigma), 10 μM AraC, NGF (50 ng/ml) and GDNF (2 ng/ml) and plated onto poly-lysine (500 μg/ml) and laminin (5 mg/ml) coated 35 mm tissue culture dishes (Becton Dickinson) at 8000-9000 per well. Cultures were incubated at 37° C., 5% carbon dioxide. Recordings were made within 48 hours after plating. Average size of small neurons chosen as likely nociceptors was 23±6 μm (n=50) and that of large neurons was 48±8 μm (n=10).
(§6) Whole-cell voltage-clamp or current-clamp recordings were made using an Axopatch 200A amplifier (Axon Instruments, Union City, Calif.) and patch pipettes with resistances of 1-2 MΩ. […]

TRPV1 receptors [10] = target: T1, TRPV1 receptors (Rattus norvegicus, UniProt O35433); assay: Capsaicin-evoked inward current in small DRG neurons (test for TRPV1 expression); assay type: cell-based; details: 1-sec application of 1 μM capsaicin
T1 construct: Dorsal root ganglia from 6-8 week old Sprague-Dawley rats were removed; endogenous in cells; host or cells: primary cultured DRG neurons from 6-8 week old Sprague-Dawley rats
T1 sequence (O35433 whole entry): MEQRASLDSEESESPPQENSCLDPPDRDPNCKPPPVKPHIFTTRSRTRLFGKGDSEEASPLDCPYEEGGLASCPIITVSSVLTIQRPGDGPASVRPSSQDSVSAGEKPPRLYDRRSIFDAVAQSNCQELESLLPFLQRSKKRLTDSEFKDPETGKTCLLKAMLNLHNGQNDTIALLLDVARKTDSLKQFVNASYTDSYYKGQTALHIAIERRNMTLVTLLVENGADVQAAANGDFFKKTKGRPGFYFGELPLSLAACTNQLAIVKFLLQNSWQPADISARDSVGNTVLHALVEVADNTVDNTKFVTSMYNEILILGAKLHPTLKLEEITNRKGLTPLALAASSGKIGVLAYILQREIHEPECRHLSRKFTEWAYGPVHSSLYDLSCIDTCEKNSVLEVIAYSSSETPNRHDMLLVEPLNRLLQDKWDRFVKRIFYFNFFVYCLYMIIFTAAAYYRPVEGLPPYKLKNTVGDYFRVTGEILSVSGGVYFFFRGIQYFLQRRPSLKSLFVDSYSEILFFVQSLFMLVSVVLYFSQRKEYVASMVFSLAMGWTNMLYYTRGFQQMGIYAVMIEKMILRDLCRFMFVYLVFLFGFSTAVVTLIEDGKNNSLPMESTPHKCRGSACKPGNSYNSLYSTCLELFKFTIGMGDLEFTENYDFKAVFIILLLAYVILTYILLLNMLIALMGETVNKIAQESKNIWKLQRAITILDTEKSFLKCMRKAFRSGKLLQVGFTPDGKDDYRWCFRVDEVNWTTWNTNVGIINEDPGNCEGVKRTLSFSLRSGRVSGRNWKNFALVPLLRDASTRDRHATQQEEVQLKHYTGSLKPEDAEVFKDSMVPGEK
Experimental: We recorded current through voltage-dependent sodium channels using whole-cell voltage clamp recordings from adult rat DRG neurons. To select for nociceptors, we recorded from small (24±5 μm; n=25) neurons and tested the neurons for the expression of TRPV1 receptors by a short (1-sec) application of 1 μM capsaicin. […] Sodium currents were elicited by depolarizing steps from a holding potential of −70 mV.
Dorsal root ganglia from 6-8 week old Sprague-Dawley rats were removed and placed into Dulbecco's Minimum Essential Medium containing 1% penicillin—streptomycin (Sigma), then treated for 90 minutes with 5 mg/ml collagenase, 1 mg/ml Dispase II (Roche, Indianapolis, Ind.) and for 7 minutes with 0.25% trypsin, followed by addition of 2.5% trypsin inhibitor. Cells were triturated in the presence of DNAase I inhibitor (50 U), centrifuged through 15% BSA (Sigma), resuspended in 1 ml Neurobasal medium (Sigma), 10 μM AraC, NGF (50 ng/ml) and GDNF (2 ng/ml) and plated onto poly-lysine (500 μg/ml) and laminin (5 mg/ml) coated 35 mm tissue culture dishes (Becton Dickinson) at 8000-9000 per well. Cultures were incubated at 37° C., 5% carbon dioxide. Recordings were made within 48 hours after plating.
as §6

[11] = Intraplantar injection, spontaneous flinching; details: first 5 min after intraplantar injection
Experimental: as §4, §5

For `C=CCN=C=S` [MO], the “reduction of sodium current” value (sodium current) was 20-30% and the “time to plateau of sodium current reduction” value (sodium current) was “approximately 3 minutes”.
With `CC[N+](CC)(CC)CC(=O)Nc1c(C)cccc1C` [QX-314] the “decrease of sodium current” value ([1]; bath application of 5 mM QX-314 alone, 5-minute application) was 3±0.5%, the “effect on mechanical threshold” value [2] was “no significant effect” and the “effect on mechanical threshold for withdrawal response” value [3] was “no significant effect”. The “increase of sodium current” value ([4]; QX-314 alone) was 8±4%, the “effect of external QX-314 alone on sodium channels” value (sodium channel; external application) was “no effect” and the “effect on motor function” value ([5]; rat, in vivo) was “no effect on motor function”. For the same compound, the “effect on thermal response latency / reaction to noxious radiant heat” value [6] was “transiently reduced the thermal response latency”, the “effect on action potential” value [7] was “no effect” and the “effect on thermal response latency” value [8] was “no significant effect”.
In the case of `COc1cc(CNC(=O)CCCC/C=C/C(C)C)ccc1O` [capsaicin], the “inhibition of sodium current” value ([1]; capsaicin alone, 1 μM for 1-10 minutes) is reported as 31±9%, the “inward current elicited in large DRG neurons” value (TRPV1 receptors [9]) is reported as “did not elicit an inward current” and the “effect on mechanical threshold” value [2] is reported as “reduced”. For the same compound, the “effect on mechanical threshold for withdrawal response” value [3] was “significantly reduced the mechanical threshold”, the “small neurons in which capsaicin produced inward current” value (TRPV1 receptors [10]) was 25/25 and the “duration of prolonged inward current” value (TRPV1 receptors [10]; small neurons) was 10 ± 3 s. For the same compound, the “average increase of sodium current” value ([4]; capsaicin alone) was 3±2%, the mean motor score ([5]; capsaicin alone 0.5 μg/μL, 100 μL, within 30 min after injection, scale 0-2) was 0.7±0.2 and the “animals with sustained flexion of the injected limb” value ([5]; sciatic injection) was 4 out of the 6. The “effect on placing reflex” value ([5]; sciatic injection) was “unchanged”, the “effect on thermal response latency / reaction to noxious radiant heat” value [6] was “reduced as expected the thermal response latency” and the “effect on action potential” value [7] was “reduced the action potential amplitude”. The number of flinches [11] was 40±6 and the “effect on thermal response latency” value [8] was “reduced”.
In the case of `C=CCc1ccc(O)c(OC)c1` [eugenol, 2-methoxy-4-(2-propenyl)phenol], the “inhibition of sodium current” value (sodium channel; eugenol alone) is reported as 10-20%.
In the case of `CCN(CC)CC(=O)Nc1c(C)cccc1C` [lidocaine], the “duration of complete loss of placing reflex” value ([5]; rat, in vivo) is reported as “at least 30 minutes”, the “effect on motor function” value ([5]; rat, in vivo) is reported as “complete paralysis of the lower limb” and the “effect on placing reflex” value ([5]; rat, in vivo) is reported as “complete loss of the tactile stimulus-evoked placing reflex”. The “time of full recovery of sensory and motor deficits” value ([5]; rat, in vivo) was ≤ 45 min and the mean motor score ([5]; rat, in vivo, 30 min) was 1.67±0.2.

Source: patent US10179116B2, “Methods, compositions, and kits for treating pain and pruritis” (President and Fellows of Harvard College, priority 2006, dated 2019)
